# From BindingDB's records for doi:10.1016/j.bmcl.2009.01.008 (Pfizer, 2009)
# “And” between values parts separate entries of the source, which are not always exact repeats. Identical values can stand only once.
# Assay: Antagonist activity at human recombinant CCR5 expressed in human HeLa-P4 cells assessed as inhibition of human HeLa-P4 cells binding to HIV1 gp160 expressing CHO cells by cell-cell fusion assay
row,SMILES,IC50
1,"Cc1nnc(C(C)C)n1C1CCN(C(C)C[C@H](NC(=O)C2CC2)c2ccccc2)CC1 (mixture of isomers) [(+/-)-N-((1S)-3-(4-(3-isopropyl-5-methyl-4H-1,2,4-triazol-4-yl)piperidin-1-yl)-1-phenylbutyl)cyclopropanecarboxamide]",3.93 nM
2,"Cc1nnc(C(C)C)n1C1CCN(C(C)C[C@H](NC(=O)C2CCCCC2)c2ccccc2)CC1 (mixture of isomers) [(+/-)-N-((1S)-3-(4-(3-isopropyl-5-methyl-4H-1,2,4-triazol-4-yl)piperidin-1-yl)-1-phenylbutyl)cyclohexanecarboxamide]",0.513 nM
3,"Cc1nnc(C(C)C)n1C1CCN(C(C)C[C@H](NC(=O)C2CCCC2)c2ccccc2)CC1 (mixture of isomers) [(+/-)-N-((1S)-3-(4-(3-isopropyl-5-methyl-4H-1,2,4-triazol-4-yl)piperidin-1-yl)-1-phenylbutyl)cyclopentanecarboxamide]",0.137 nM
4,"Cc1nnc(C(C)C)n1C1CCN(C(C)C[C@H](NC(=O)C(C)C)c2ccccc2)CC1 (mixture of isomers) [(+/-)-N-((1S)-3-(4-(3-isopropyl-5-methyl-4H-1,2,4-triazol-4-yl)piperidin-1-yl)-1-phenylbutyl)isobutyramide]",3.11 nM
5,"Cc1nnc(C(C)C)n1C1CCN(C(C)C[C@H](NC(=O)N2CCOCC2)c2ccccc2)CC1 (mixture of isomers) [(+/-)-N-((1S)-3-(4-(3-isopropyl-5-methyl-4H-1,2,4-triazol-4-yl)piperidin-1-yl)-1-phenylbutyl)morpholine-4-carboxamide]",176 nM
6,"Cc1nnc(C(C)C)n1C1CCN(C(C)C[C@H](NC(=O)N2CCN(C)CC2)c2ccccc2)CC1 (mixture of isomers) [(+/-)-N-((1S)-3-(4-(3-isopropyl-5-methyl-4H-1,2,4-triazol-4-yl)piperidin-1-yl)-1-phenylbutyl)-4-methylpiperazine-1-carboxamide]",187 nM
7,"Cc1nnc(C(C)C)n1C1CCN(C(C)C[C@H](NC(=O)C2CCOCC2)c2ccccc2)CC1 (mixture of isomers) [(+/-)-N-((1S)-3-(4-(3-isopropyl-5-methyl-4H-1,2,4-triazol-4-yl)piperidin-1-yl)-1-phenylbutyl)tetrahydro-2H-pyran-4-carboxamide]",164 nM
8,"Cc1nnc(C(C)C)n1C1CCN(C(C)C[C@H](NC(=O)C2CC[S+]([O-])CC2)c2ccccc2)CC1 (mixture of isomers) [(+/-)-1-Oxo-hexahydro-1lambda*4*-thiopyran-4-carboxylic acid{(S)-3-[4-(3-isopropyl-5-methyl-[1,2,4]triazol-4-yl)-piperidin-1-yl]-1-phenyl-butyl}-amide]",4.87 nM
9,"Cc1nnc(C(C)C)n1C1CCN(C(C)C[C@H](NC(=O)CC2CC2)c2ccccc2)CC1 (mixture of isomers) [(+/-)-2-cyclopropyl-N-((1S)-3-(4-(3-isopropyl-5-methyl-4H-1,2,4-triazol-4-yl)piperidin-1-yl)-1-phenylbutyl)acetamide]",3.16 nM
10,"CC(=O)N[C@@H](CC(C)N1CCC(n2c(C)nnc2C(C)C)CC1)c1ccccc1 (mixture of isomers) [(+/-)-N-((1S)-3-(4-(3-isopropyl-5-methyl-4H-1,2,4-triazol-4-yl)piperidin-1-yl)-1-phenylbutyl)acetamide]",89.2 nM
11,"Cc1nc(C(C)C)n(C2CC3CCC(C2)N3CC[C@H](NC(=O)C2CCC(F)(F)CC2)c2ccccc2)n1 (stereo partly drawn) [4,4-difluoro-N-((1S)-3-(3-(5-isopropyl-3-methyl-1H-1,2,4-triazol-1-yl)-8-azabicyclo[3.2.1]octan-8-yl)-1-phenylpropyl)cyclohexanecarboxamide]",1.4 nM
12,"CC(=O)N1CCC(C(=O)N[C@@H](CC(C)N2CCC(n3c(C)nnc3C(C)C)CC2)c2ccccc2)CC1 (mixture of isomers) [(+/-)-1-acetyl-N-((1S)-3-(4-(3-isopropyl-5-methyl-4H-1,2,4-triazol-4-yl)piperidin-1-yl)-1-phenylbutyl)piperidine-4-carboxamide]",28.7 nM
13,Cc1nnc(C(C)C)n1C1CCN(C(C)C[C@H](NC(=O)C2CC(F)(F)C2)c2ccccc2)CC1 (mixture of isomers),1.3 nM and 0.38 nM
14,"Cc1nnc(C(C)C)n1C1CCN([C@@H](C)C[C@H](NC(=O)C2CCC(F)(F)CC2)c2ccccc2)CC1 [4,4-difluoro-N-((1S,3S)-3-(4-(3-isopropyl-5-methyl-4H-1,2,4-triazol-4-yl)piperidin-1-yl)-1-phenylbutyl)cyclohexanecarboxamide]",49.9 nM
15,"Cc1nnc(C(C)C)n1C1CCN(C(C)C[C@H](NC(=O)COCC(F)(F)F)c2ccccc2)CC1 (mixture of isomers) [(+/-)-N-((1S)-3-(4-(3-isopropyl-5-methyl-4H-1,2,4-triazol-4-yl)piperidin-1-yl)-1-phenylbutyl)-2-(2,2,2-trifluoroethoxy)acetamide]",52.8 nM
16,"Cc1nnc(C(C)C)n1C1CCN(C(C)C[C@H](NC(=O)C2CCS(=O)(=O)CC2)c2ccccc2)CC1 (mixture of isomers) [(+/-)-1,1-Dioxo-hexahydro-1lambda*6*-thiopyran-4-carboxylic acid{(S)-3-[4-(3-isopropyl-5-methyl-[1,2,4]triazol-4-yl)-piperidin-1-yl]-1-phenyl-butyl}-amide]",6.12 nM
17,"Cc1nnc(C(C)C)n1C1CCN([C@H](C)C[C@H](NC(=O)C2CC(F)(F)C2)c2ccccc2)CC1 [3,3-difluoro-N-((1S,3R)-3-(4-(3-isopropyl-5-methyl-4H-1,2,4-triazol-4-yl)piperidin-1-yl)-1-phenylbutyl)cyclobutanecarboxamide]",0.48 nM
18,"Cc1nnc(C(C)C)n1C1CCN(C(C)C[C@H](NC(=O)CC(F)(F)F)c2ccccc2)CC1 (mixture of isomers) [(+/-)-3,3,3-trifluoro-N-((1S)-3-(4-(3-isopropyl-5-methyl-4H-1,2,4-triazol-4-yl)piperidin-1-yl)-1-phenylbutyl)propanamide]",85.3 nM
19,"COC(=O)N[C@@H](CC(C)N1CCC(n2c(C)nnc2C(C)C)CC1)c1ccccc1 (mixture of isomers) [(+/-)-methyl(1S)-3-(4-(3-isopropyl-5-methyl-4H-1,2,4-triazol-4-yl)piperidin-1-yl)-1-phenylbutylcarbamate]",315 nM
